Converted amounts (≈) assume the structure as drawn. Where two headings read alike, the source gives them in different places.
Experiments:
[1] = test system: M. tuberculosis branched-chain aminotransferase; type: biochemical, Mycobacterium tuberculosis H37Rv; settings: for amino donor activity for Met formation from KMTB: 2 mM individual amino acid, 1 mM KMTB, 30 min at 37°C (Figure 5); for Km: read-out: Apparent Km
M. tuberculosis BCAT = M. tuberculosis BCAT (Mycobacterium tuberculosis, UniProt P9WQ75); experiment: Inhibition of BCAT-catalysed Met formation by aminooxy compounds; type: biochemical, Mycobacterium tuberculosis H37Rv; settings: for inhibition of Met formation, ranking at 0.1 mM / inhibition of Met formation: 2.0 mM leucine; for inhibition of Met formation, ranking at 0.1 mM: 0.1 mM inhibitor (Figure 6); for type of inhibition: fit to competitive, uncompetitive and mixed inhibition equations; for inhibition of Met formation: 0.1 or 1.0 mM inhibitor (Figure 6)
Chain of M. tuberculosis BCAT (P9WQ75 whole entry, looked up): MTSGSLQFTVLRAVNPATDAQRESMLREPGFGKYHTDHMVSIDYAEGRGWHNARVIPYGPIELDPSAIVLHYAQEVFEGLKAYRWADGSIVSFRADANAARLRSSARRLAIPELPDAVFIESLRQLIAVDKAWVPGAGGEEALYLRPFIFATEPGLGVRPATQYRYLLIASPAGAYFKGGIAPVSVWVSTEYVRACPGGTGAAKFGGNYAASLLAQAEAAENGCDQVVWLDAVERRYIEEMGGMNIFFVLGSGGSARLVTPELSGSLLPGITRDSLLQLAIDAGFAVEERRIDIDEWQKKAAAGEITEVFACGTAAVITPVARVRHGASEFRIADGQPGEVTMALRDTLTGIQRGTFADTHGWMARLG
Protocol: Aminotransferase activities were assayed by an HPLC method. 5 or 10 μl of recombinant enzyme was added to 100 μl of substrate mix (100 mM PO4 (pH 7.4)/50 μM PLP/various concentrations of amino acid/various concentrations of keto acid) and incubated for 30 min at 37°C. The samples were then stored at -20°C until analysis by HPLC. All samples were analysed by pre-column derivatisation and reverse-phase HPLC. 10 μl of sample was mixed with 50 μl of 400 mM borate pH 10.5 and then with 10 μl of 10 mg/ml o-phthalaldehyde/12 μl/ml mercaptopropionate/400 mM borate pH 10.5 prior to the injection of 7.0 μl onto a 2.1 × 200 mm ODS-AA column (Agilent; Mississauga, ON, Canada). The column was eluted using 2.72 mg/ml sodium acetate pH 7.2/0.018% v/v triethylamine/0.3% v/v tetrahydrofuran as Buffer A and 2.72 mg/ml sodium acetate pH 7.2/40% v/v methanol/40% v/v acetonitrile as Buffer B with a linear gradient of 0 – 17% B over 16 min followed by a linear gradient of 17–100% B over 1 min and 6.0 min at 100% B. The flow rate was 0.45 ml/min from 0 – 16 min and 0.80 ml/min from 17–30 min. The elution of derivatised amino acids was monitored at 338 nm and fluorometrically with an excitation of 338 nm and an emission of 450 nm. All separations were performed on an Agilent 1100 HPLC equipped with an autosampler, variable wavelength ultraviolet/visible spectrophotometric detector, fluorescence detector, and Chemstation operating system.
Initial inhibition studies screened 13 aminooxy compounds against M. tuberculosis BCAT using 2.0 mM Leu/1.0 mM KMTB/0.1 or 1.0 mM inhibitor in the enzyme incubation. […] These reactions involved 0.5, 1.0, 2.0, or 3.0 mM Leu and 1.0 mM KMTB in the reaction mixture together with 0, 25, 50, 75, 100, 150, 200 μM of inhibitor. The Ki values were determined by non-linear curve fitting with the Scientist software programmed with competitive, uncompetitive, and mixed inhibition equations [25].

M. marinum = experiment: In vitro growth inhibition, microtitre doubling dilution, A650 nm; type: cell-based, M. marinum Aronson (ATCC927)
M. tuberculosis [2] = experiment: as above; type: cell-based, M. tuberculosis H37Rv
M. tuberculosis [3] = settings: older study, other medium, cited from earlier work
[4] = varying substrate, 10 mM cosubstrate KMTB, Met formation
[5] = varying substrate, 10 mM cosubstrate KG, Glu formation
[6] = varying keto acid substrate, 10 mM cosubstrate Leu
[7] = 0.5-3.0 mM Leu, 1.0 mM KMTB, 0-200 μM inhibitor
[8] = read-out: Kic (competitive component of mixed-type inhibition), 0.5-3.0 mM Leu, 1.0 mM KMTB, 0-200 μM inhibitor
[9] = M. marinum, n = 8, 8 days at 30°C, Middlebrook 7H9
[10] = M. marinum, n = 8, 8 days at 30°C, Middlebrook 7H9, read-out: IC50
[11] = M. tuberculosis, n = 6, 14 days at 37°C, Middlebrook 7H9
[12] = M. tuberculosis, n = 6, 14 days at 37°C, Middlebrook 7H9, read-out: IC50
[13] = Mycobacterium tuberculosis, 336 h

## N[C@@H](CCC(=O)O)C(=O)O [Glu, glutamate]
[1]
  amino donor activity for Met formation from KMTB: also active as amino donors
[1]; [4]
  Apparent Vmax: 5.70 ± 1.20 μmol/min/mg protein
  Km: 9530 ± 3430 µM

## CC[C@H](C)[C@H](N)C(=O)O [Ile, Isoleucine]
[1]
  amino donor activity for Met formation from KMTB: most effective substrates
[1]; [5]
  Apparent Vmax: 14.35 ± 1.08 μmol/min/mg protein
  Km: 6160 ± 1140 µM
[1]; [4]
  Apparent Vmax: 4.28 ± 0.32 μmol/min/mg protein
  Km: 2850 ± 560 µM

## O=C(O)CCC(=O)C(=O)O [KG, ketoglutarate]
[1]; [6]
  Apparent Vmax: 12.80 ± 1.12 μmol/min/mg protein
  Km: 6950 ± 1440 µM

## CSCCC(=O)C(=O)O [KMTB, ketomethiobutyrate]
[1]; [6]
  Apparent Vmax: 4.22 ± 0.72 μmol/min/mg protein
  Km: 4200 ± 1790 µM

## CC(C)C[C@H](N)C(=O)O [Leu, leucine]
[1]
  amino donor activity for Met formation from KMTB: most effective substrates
[1]; [5]
  Apparent Vmax: 13.44 ± 0.84 μmol/min/mg protein
  Km: 6020 ± 940 µM
[1]; [4]
  Apparent Vmax: 3.65 ± 0.43 μmol/min/mg protein
  Km: 2500 ± 900 µM

## CC(C)(C)ON [O-(t-butyl)hydroxylamine]
M. tuberculosis BCAT; 1.0 mM KMTB
  inhibition of Met formation, ranking at 0.1 mM: most active
M. tuberculosis BCAT; [7]
  Kiu (uncompetitive component of mixed-type inhibition): 85.60 ± 44.79 µM
M. tuberculosis BCAT
  type of inhibition: mixed-type inhibition
M. tuberculosis BCAT; [8]
  Ki: 11 ± 2.76 µM
M. marinum; [9]
  MIC: 10000 µM
M. marinum; [10]
  IC50: 43.2 ± 10.5 µM
M. tuberculosis [2]; [11]
  MIC: 10000 µM
M. tuberculosis [2]; [12]
  IC50: 131 ± 23.1 µM

## C=CCON [O-allylhydroxylamine]
M. tuberculosis BCAT; 1.0 mM KMTB
  inhibition of Met formation, ranking at 0.1 mM: most active
M. tuberculosis BCAT; [7]
  Kiu (uncompetitive component of mixed-type inhibition): > 200 µM
M. tuberculosis BCAT
  type of inhibition: mixed-type inhibition
M. tuberculosis BCAT; [8]
  Ki: 21.6 ± 11.1 µM
M. marinum; [9]
  MIC: 78 µM
M. marinum; [10]
  IC50: 8.49 ± 1.96 µM
M. marinum; M. marinum, read-out: MIC
  MIC: 78 µM
M. tuberculosis [2]; M. tuberculosis, as stated in text (present data), read-out: MIC
  MIC: 156 µM
M. tuberculosis [2]; [11]
  MIC: 156 µM
M. tuberculosis [2]; [12]
  IC50: 39.2 ± 2.01 µM

## NOCc1ccccc1 [O-benzylhydroxylamine]
M. tuberculosis BCAT; 1.0 mM KMTB
  inhibition of Met formation, ranking at 0.1 mM: most active
M. tuberculosis BCAT; [7]
  Kiu (uncompetitive component of mixed-type inhibition): 84.08 ± 31.91 µM
M. tuberculosis BCAT
  type of inhibition: mixed-type inhibition
M. tuberculosis BCAT; [8]
  Ki: 8.2 ± 2.56 µM
M. marinum; [9]
  MIC: 1250 µM
M. marinum; [10]
  IC50: 411 ± 67.1 µM
M. tuberculosis [2]; [11]
  MIC: 1250 µM
M. tuberculosis [2]; [12]
  IC50: 468 ± 62.8 µM

## C[Si](C)(C)ON [O-trimethylsilylhydroxylamine]
M. tuberculosis BCAT; 1.0 mM KMTB
  inhibition of Met formation: With the exception of O-trimethylsilylhydroxylamine, all of the compounds inhibited Met formation to some extent

## N[C@@H](Cc1ccccc1)C(=O)O [Phe, phenylalanine]
[1]
  amino donor activity for Met formation from KMTB: also active as amino donors
[1]; [4]
  Apparent Vmax: 2.17 ± 0.22 μmol/min/mg protein
  Km: 7440 ± 1400 µM

## N[C@@H](Cc1ccc(O)cc1)C(=O)O [Tyrosine]
[1]
  amino donor activity for Met formation from KMTB: much lesser ability to transaminate KMTB

## CC(C)[C@H](N)C(=O)O [Val, valine]
[1]
  amino donor activity for Met formation from KMTB: most effective substrates
[1]; [5]
  Apparent Vmax: 11.82 ± 0.80 μmol/min/mg protein
  Km: 5790 ± 990 µM
[1]; [4]
  Apparent Vmax: 2.58 ± 0.41 μmol/min/mg protein
  Km: 1770 ± 860 µM

## NOCC[C@H](N)C(=O)O [canaline]
M. tuberculosis BCAT; 1.0 mM KMTB
  inhibition of Met formation: not a particularly good inhibitor
M. marinum; Mycobacterium marinum, 192 h
  IC50: 335 ± 13.6 µM
  MIC: 1250 µM
M. tuberculosis [2]; [13]
  IC50: 273 ± 14.6 µM
  MIC: 1250 µM

## NOCC(=O)O [carboxymethoxylamine]
M. tuberculosis BCAT
  Ki: 21 ± 7.27 µM
  type of inhibition: mixed-type inhibition
M. tuberculosis BCAT; 1.0 mM KMTB
  inhibition of Met formation, ranking at 0.1 mM: most active
M. tuberculosis BCAT; [7]
  Kiu (uncompetitive component of mixed-type inhibition): 142.42 ± 69.76 µM
M. marinum; Mycobacterium marinum, 192 h, M. marinum, n = 8, 8 days at 30°C, Middlebrook 7H9, read-out: IC50
  IC50: 89.3 ± 7.65 µM
M. marinum; Mycobacterium marinum, 192 h, M. marinum, n = 8, 8 days at 30°C, Middlebrook 7H9, read-out: MIC
  MIC: 313 µM
M. tuberculosis [2]; Mycobacterium tuberculosis, 336 h, M. tuberculosis, n = 6, 14 days at 37°C, Middlebrook 7H9, read-out: IC50
  IC50: 71 ± 7.83 µM
M. tuberculosis [2]; Mycobacterium tuberculosis, 336 h, M. tuberculosis, n = 6, 14 days at 37°C, Middlebrook 7H9, read-out: MIC
  MIC: 313 µM
M. tuberculosis [2]; Mycobacterium tuberculosis, M. tuberculosis, as stated in text (present data), read-out: MIC
  MIC: 313 µM
M. tuberculosis [3]; ref 35
  MIC: 910 µM (≈ 82.9 µg/mL)
M. tuberculosis [3]; ref 37
  MIC: 170 µM (≈ 15.5 µg/mL)

## [H]/N=C(/N)N[C@H]1[C@H](O)[C@@H](O)[C@H](O[C@@H]2O[C@@H](C)[C@](O)(C=O)[C@H]2O[C@@H]2O[C@@H](CO)[C@H](O)[C@@H](O)[C@@H]2NC)[C@@H](N/C(N)=N\[H])[C@@H]1O [streptomycin]
M. marinum; Mycobacterium marinum, M. marinum, read-out: MIC
  MIC: 8 µg/mL
M. tuberculosis [2]; Mycobacterium tuberculosis, M. tuberculosis, read-out: MIC
  MIC: 2 µg/mL

## N[C@@H](Cc1c[nH]c2ccccc12)C(=O)O [tryptophan]
[1]
  amino donor activity for Met formation from KMTB: much lesser ability to transaminate KMTB

From PMC524486, “Branched-chain amino acid aminotransferase and methionine formation in Mycobacterium tuberculosis” (BMC Microbiology, 2004)
